Data from patent US11897867B2, “6-phenyl-4,5-dihydropyridazin-3(2H)-one derivatives as PDE3A and PDE3B inhibitors for treating cancer” (Bayer Aktiengesellschaft, priority 2017, dated 2024).

Key:
SK-MEL-3 (melanoma) = assay: Cell proliferation measurement (Cell Titer Glo), SK-MEL-3; type: cell-based; conditions: Homo sapiens, SK-MEL3, SK-MEL-3 cells, 72 h treatment, read-out: Anti-proliferation IC50 SK-MEL-3 (melanoma)
Method in brief: (§1)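 Cells (1000/well; 500 for HeLa) plated overnight at 37 °C, then exposed to a ≥10-point compound dilution series for 72 h at 37 °C, DMSO 0.3% final as vehicle. Viability read by CellTiter-Glo luminescence; IC50 from 4-parameter fit against untreated wells.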

human full length PDE3B = biological target: T1, human full length PDE3B (Homo sapiens, UniProt Q13370); assay: PDE3B enzyme inhibition (3H-cAMP Scintillation Proximity Assay); type: biochemical; conditions: PDE3B cell extract from Sf9 cells, 60 min room temperature; read-out: Target IC50 PDE3B IC50
T1 construct: Sf9 cells overexpressing human full length PDE3B; purchased SB Drug Discovery, UK; host or cells: Sf9 cells (cell extract)
Method in brief: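 SPA with Sf9 cell extract overexpressing human full-length PDE3B, diluted for linear kinetics and <70% substrate turnover, in 50 mM Tris/HCl pH 7.5, 8.3 mM MgCl2, 1.7 mM EDTA, 0.2% BSA. [8-3H]cAMP substrate, 60 min at room temperature, stopped with yttrium SPA beads. IC50 from sigmoidal fit of % activity vs log concentration.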

[1] = test system: HeLa cells (cervical cancer); assay: Cell proliferation measurement (Cell Titer Glo), HeLa; type: cell-based; conditions: Homo sapiens, 72 h treatment, read-out: Anti-proliferation IC50 HeLa (Cervical cancer)
Method in brief: as §1

human full length PDE3A = biological target: T2, human full length PDE3A (Homo sapiens, UniProt Q14432); assay: PDE3A enzyme inhibition (3H-cAMP Scintillation Proximity Assay); type: biochemical; conditions: PDE3A cell extract from Sf9 cells, 60 min room temperature; read-out: Target IC50 PDE3A IC50
T2 construct: Sf9 cells overexpressing human full length PDE3A; purchased SB Drug Discovery, UK; host or cells: Sf9 cells (cell extract)
Method in brief: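 Sf9 cell extract overexpressing human full-length PDE3A, diluted for linear kinetics (<70% substrate used), in 50 mM Tris/HCl pH 7.5, 8.3 mM MgCl2, 1.7 mM EDTA, 0.2% BSA. [8-3H]cAMP substrate, 60 min at room temperature, yttrium SPA bead read-out; IC50 from sigmoidal curves of % activity.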

T1 sequence (Q13370 whole entry): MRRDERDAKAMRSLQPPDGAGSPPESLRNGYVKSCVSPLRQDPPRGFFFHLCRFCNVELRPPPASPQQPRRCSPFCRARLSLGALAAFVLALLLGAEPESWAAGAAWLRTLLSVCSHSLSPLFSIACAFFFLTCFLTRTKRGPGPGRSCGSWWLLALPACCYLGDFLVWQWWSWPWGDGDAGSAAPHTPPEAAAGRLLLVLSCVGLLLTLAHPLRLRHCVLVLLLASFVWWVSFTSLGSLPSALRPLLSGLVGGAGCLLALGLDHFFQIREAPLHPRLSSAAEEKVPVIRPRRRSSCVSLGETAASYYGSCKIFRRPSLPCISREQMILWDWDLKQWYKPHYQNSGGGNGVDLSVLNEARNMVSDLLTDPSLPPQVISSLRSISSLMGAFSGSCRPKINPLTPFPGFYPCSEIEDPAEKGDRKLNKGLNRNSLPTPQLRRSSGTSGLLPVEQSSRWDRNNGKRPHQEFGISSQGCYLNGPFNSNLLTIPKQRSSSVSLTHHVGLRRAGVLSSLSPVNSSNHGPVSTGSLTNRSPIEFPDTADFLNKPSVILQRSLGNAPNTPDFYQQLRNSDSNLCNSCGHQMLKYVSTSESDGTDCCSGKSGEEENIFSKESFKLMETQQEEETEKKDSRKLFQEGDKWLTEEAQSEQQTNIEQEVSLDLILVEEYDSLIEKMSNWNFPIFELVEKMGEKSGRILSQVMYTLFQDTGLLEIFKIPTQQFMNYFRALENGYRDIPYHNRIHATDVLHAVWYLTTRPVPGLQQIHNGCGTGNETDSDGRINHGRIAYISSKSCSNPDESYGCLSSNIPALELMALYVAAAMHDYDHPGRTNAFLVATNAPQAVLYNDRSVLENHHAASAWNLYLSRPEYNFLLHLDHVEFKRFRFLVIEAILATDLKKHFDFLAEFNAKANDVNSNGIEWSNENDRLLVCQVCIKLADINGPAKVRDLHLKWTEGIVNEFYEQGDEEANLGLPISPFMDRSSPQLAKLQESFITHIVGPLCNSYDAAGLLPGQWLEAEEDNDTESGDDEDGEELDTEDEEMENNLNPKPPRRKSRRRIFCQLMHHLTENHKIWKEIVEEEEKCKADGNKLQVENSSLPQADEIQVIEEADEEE
T2 sequence (Q14432 whole entry): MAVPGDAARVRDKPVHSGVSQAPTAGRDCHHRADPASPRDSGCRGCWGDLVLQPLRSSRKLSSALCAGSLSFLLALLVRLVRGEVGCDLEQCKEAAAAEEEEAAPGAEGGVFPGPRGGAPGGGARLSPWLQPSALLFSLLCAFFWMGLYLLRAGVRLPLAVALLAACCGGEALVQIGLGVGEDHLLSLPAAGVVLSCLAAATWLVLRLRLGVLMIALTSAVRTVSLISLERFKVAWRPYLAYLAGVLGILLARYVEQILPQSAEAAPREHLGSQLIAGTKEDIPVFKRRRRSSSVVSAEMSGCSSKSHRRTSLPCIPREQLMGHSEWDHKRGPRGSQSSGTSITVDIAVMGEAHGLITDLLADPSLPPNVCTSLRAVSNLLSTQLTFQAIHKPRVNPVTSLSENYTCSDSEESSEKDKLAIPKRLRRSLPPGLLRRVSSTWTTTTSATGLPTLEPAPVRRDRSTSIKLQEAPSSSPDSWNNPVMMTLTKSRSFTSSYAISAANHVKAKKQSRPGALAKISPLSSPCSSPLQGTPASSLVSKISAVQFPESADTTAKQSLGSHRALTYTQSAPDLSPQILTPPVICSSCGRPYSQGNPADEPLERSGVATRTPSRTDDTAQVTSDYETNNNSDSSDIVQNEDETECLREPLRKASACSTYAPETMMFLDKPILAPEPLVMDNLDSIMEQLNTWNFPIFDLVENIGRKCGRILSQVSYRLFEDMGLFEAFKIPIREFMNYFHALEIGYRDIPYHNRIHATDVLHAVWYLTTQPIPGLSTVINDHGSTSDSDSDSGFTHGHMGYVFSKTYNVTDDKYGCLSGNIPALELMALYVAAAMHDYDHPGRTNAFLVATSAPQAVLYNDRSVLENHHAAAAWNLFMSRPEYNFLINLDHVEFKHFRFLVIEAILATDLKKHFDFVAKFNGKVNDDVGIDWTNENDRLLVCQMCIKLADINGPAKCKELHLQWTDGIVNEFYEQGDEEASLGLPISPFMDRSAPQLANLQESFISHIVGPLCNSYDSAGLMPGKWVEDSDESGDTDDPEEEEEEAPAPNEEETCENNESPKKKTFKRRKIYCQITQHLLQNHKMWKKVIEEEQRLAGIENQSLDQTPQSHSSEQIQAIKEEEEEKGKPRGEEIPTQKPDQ

Cc1cc(C2=NNC(=O)CC2)ccc1-c1ccncc1 [Example 5, 6-[3-Methyl-4-(pyridin-4-yl)phenyl]-4,5-dihydropyridazin-3(2H)-one]
IC50 (SK-MEL-3 (melanoma)): 65.7 nM | IC50 (human full length PDE3B): 39 nM | IC50 [1]: 21.3 nM | IC50 (human full length PDE3A): 120 nM

O=C1CCC(c2ccc(-c3cc(F)ccc3F)c(F)c2)=NN1 [Example 42, 6-(2,2′,5′-trifluoro[1,1′-biphenyl]-4-yl)-4,5-dihydropyridazin-3(2H)-one]
IC50 (SK-MEL-3 (melanoma)): 8.4 nM | IC50 (human full length PDE3B): 68 nM | IC50 [1]: 5.23 nM | IC50 (human full length PDE3A): 80 nM

Cc1cc(C2=NNC(=O)CC2)ccc1-c1cccc(N)c1 [Example 103, 6-(3′-amino-2-methyl[1,1′-biphenyl]-4-yl)-4,5-dihydropyridazin-3(2H)-one]
IC50 (SK-MEL-3 (melanoma)): > 100 nM | IC50 (human full length PDE3B): 200 nM | IC50 [1]: 36.8 nM | IC50 (human full length PDE3A): 170 nM

N#Cc1ccc(F)c(-c2ccc(C3=NNC(=O)CC3)cc2F)c1 [Example 89, 2′,6-difluoro-4′-(6-oxo-1,4,5,6-tetrahydropyridazin-3-yl)[1,1′-biphenyl]-3-carbonitrile]
IC50 (SK-MEL-3 (melanoma)): > 100 nM | IC50 (human full length PDE3B): 150 nM | IC50 [1]: 74.3 nM | IC50 (human full length PDE3A): 140 nM

Cc1cc(C2=NNC(=O)CC2)ccc1-c1ccnc(N)c1 [Example 90, 6-[4-(2-aminopyridin-4-yl)-3-methylphenyl]-4,5-dihydropyridazin-3(2H)-one]
IC50 (SK-MEL-3 (melanoma)): > 100 nM | IC50 (human full length PDE3B): 65 nM | IC50 [1]: 16 nM | IC50 (human full length PDE3A): 47 nM

O=C1CCC(c2ccc(-c3cc(F)c(F)cc3F)c(F)c2)=NN1 [Example 38, 6-(2,2′,4′,5′-tetrafluoro[1,1′-biphenyl]-4-yl)-4,5-dihydropyridazin-3(2H)-one]
IC50 (SK-MEL-3 (melanoma)): 11.1 nM | IC50 (human full length PDE3B): 100 nM | IC50 [1]: 5.59 nM | IC50 (human full length PDE3A): 100 nM

COc1cccc(-c2ccc(C3=NNC(=O)CC3)cc2F)c1 [Example 64, 6-(2-fluoro-3′-methoxy[1,1′-biphenyl]-4-yl)-4,5-dihydropyridazin-3(2H)-one]
IC50 (SK-MEL-3 (melanoma)): 23.1 nM | IC50 (human full length PDE3B): 91 nM | IC50 [1]: 12 nM | IC50 (human full length PDE3A): 100 nM

CC(C)=Cc1ccc(C2=NNC(=O)CC2)cc1F [Example 27, 6-[3-Fluoro-4-(2-methylprop-1-en-1-yl)phenyl]-4,5-dihydropyridazin-3(2H)-one]
IC50 (SK-MEL-3 (melanoma)): 6.1 nM | IC50 (human full length PDE3B): 140 nM | IC50 [1]: 3.36 nM | IC50 (human full length PDE3A): 130 nM

Cc1ccc(C)c(-c2ccc(C3=NNC(=O)CC3)cc2F)c1 [Example 88, 6-(2-fluoro-2′,5′-dimethyl[1,1′-biphenyl]-4-yl)-4,5-dihydropyridazin-3(2H)-one]
IC50 (SK-MEL-3 (melanoma)): > 100 nM | IC50 (human full length PDE3B): 230 nM | IC50 [1]: 91.6 nM | IC50 (human full length PDE3A): 230 nM

CNc1ccc(C2=NNC(=O)CC2)cc1C(F)(F)F [Example 23, 6-[4-(Methylamino)-3-(trifluoromethyl)phenyl]-4,5-dihydropyridazin-3(2H)-one]
IC50 (SK-MEL-3 (melanoma)): 67.6 nM | IC50 (human full length PDE3B): 470 nM | IC50 [1]: 58 nM | IC50 (human full length PDE3A): 450 nM

O=C1CCC(c2ccc(-c3ccc(F)c(F)c3)c(F)c2)=NN1 [Example 51, 6-(2,3′,4′-trifluoro[1,1′-biphenyl]-4-yl)-4,5-dihydropyridazin-3(2H)-one]
IC50 (SK-MEL-3 (melanoma)): 9.51 nM | IC50 (human full length PDE3B): 92 nM | IC50 [1]: 5.26 nM | IC50 (human full length PDE3A): 120 nM

Cc1cc(C2=NNC(=O)CC2)ccc1-c1cc(F)c(F)c(F)c1 [Example 96, 6-(3′,4′,5′-trifluoro-2-methyl[1,1′-biphenyl]-4-yl)-4,5-dihydropyridazin-3(2H)-one]
IC50 (SK-MEL-3 (melanoma)): > 100 nM | IC50 (human full length PDE3B): 260 nM | IC50 [1]: 18.5 nM | IC50 (human full length PDE3A): 310 nM

Nc1ccc(F)cc1-c1ccc(C2=NNC(=O)CC2)cc1F [Example 43, 6-(2′-amino-2,5′-difluoro[1,1′-biphenyl]-4-yl)-4,5-dihydropyridazin-3(2H)-one]
IC50 (SK-MEL-3 (melanoma)): 26.3 nM | IC50 (human full length PDE3B): 110 nM | IC50 [1]: 15.3 nM | IC50 (human full length PDE3A): 110 nM

Cc1ncccc1-c1ccc(C2=NNC(=O)CC2)cc1F [Example 33, 6-[3-fluoro-4-(2-methylpyridin-3-yl)phenyl]-4,5-dihydropyridazin-3(2H)-one]
IC50 (SK-MEL-3 (melanoma)): 24.8 nM | IC50 (human full length PDE3B): 67 nM | IC50 [1]: 14.4 nM | IC50 (human full length PDE3A): 66 nM

O=C1CCC(c2ccc(-c3cccnc3F)c(F)c2)=NN1 [Example 72, 6-[3-fluoro-4-(2-fluoropyridin-3-yl)phenyl]-4,5-dihydropyridazin-3(2H)-one]
IC50 (SK-MEL-3 (melanoma)): 6.25 nM | IC50 (human full length PDE3B): 35 nM | IC50 [1]: 4.27 nM | IC50 (human full length PDE3A): 39 nM

O=C1CCC(c2cc(F)c(N3CCC(F)(F)CC3)c(F)c2)=NN1 [Example 12, 6-[4-(4,4-Difluoropiperidin-1-yl)-3,5-difluorophenyl]-4,5-dihydropyridazin-3(2H)-one]
IC50 (SK-MEL-3 (melanoma)): 11.4 nM | IC50 (human full length PDE3B): 62 nM | IC50 [1]: 5.48 nM | IC50 (human full length PDE3A): 110 nM

Cc1cc(C2=NNC(=O)CC2)ccc1-c1ccccc1F [Example 109, 6-(2′-fluoro-2-methyl[1,1′-biphenyl]-4-yl)-4,5-dihydropyridazin-3(2H)-one]
IC50 (SK-MEL-3 (melanoma)): 14.1 nM | IC50 (human full length PDE3B): 150 nM | IC50 [1]: 5.63 nM | IC50 (human full length PDE3A): 150 nM

O=C1CCC(c2ccc(-c3ccc(F)nc3)c(F)c2)=NN1 [Example 71, 6-[3-fluoro-4-(6-fluoropyridin-3-yl)phenyl]-4,5-dihydropyridazin-3(2H)-one]
IC50 (SK-MEL-3 (melanoma)): 11.6 nM | IC50 (human full length PDE3B): 120 nM | IC50 [1]: 7.82 nM | IC50 (human full length PDE3A): 120 nM

O=C1CCC(c2ccc(C3=CCOCC3)cc2)=NN1 [Example 1, 6-[4-(3,6-Dihydro-2H-pyran-4-yl)phenyl]-4,5-dihydropyridazin-3(2H)-one]
IC50 (SK-MEL-3 (melanoma)): > 100 nM | IC50 (human full length PDE3B): 290 nM | IC50 [1]: 30.9 nM | IC50 (human full length PDE3A): 470 nM

O=C1CCC(c2ccc(N3CC(F)(F)C3)c(C(F)(F)F)c2)=NN1 [Example 19, 6-[4-(3,3-Difluoroazetidin-1-yl)-3-(trifluoromethyl)phenyl]-4,5-dihydropyridazin-3(2H)-one]
IC50 (SK-MEL-3 (melanoma)): 10.4 nM | IC50 (human full length PDE3B): 210 nM | IC50 [1]: 5.76 nM | IC50 (human full length PDE3A): 210 nM

Cc1cc(-c2ccc(C3=NNC(=O)CC3)cc2F)ccc1F [Example 84, 6-(2,4′-difluoro-3′-methyl[1,1′-biphenyl]-4-yl)-4,5-dihydropyridazin-3(2H)-one]
IC50 (SK-MEL-3 (melanoma)): 41 nM | IC50 (human full length PDE3B): 220 nM | IC50 [1]: 16.1 nM | IC50 (human full length PDE3A): 270 nM

Cc1ccc(-c2ccc(C3=NNC(=O)CC3)cc2C)cn1 [Example 93, 6-[3-methyl-4-(6-methylpyridin-3-yl)phenyl]-4,5-dihydropyridazin-3(2H)-one]
IC50 (SK-MEL-3 (melanoma)): 24.7 nM | IC50 (human full length PDE3B): 49 nM | IC50 [1]: 5.39 nM | IC50 (human full length PDE3A): 38 nM

COc1ccccc1-c1ccc(C2=NNC(=O)CC2)cc1F [Example 62, 6-(2-fluoro-2′-methoxy[1,1′-biphenyl]-4-yl)-4,5-dihydropyridazin-3(2H)-one]
IC50 (SK-MEL-3 (melanoma)): 22.8 nM | IC50 (human full length PDE3B): 47 nM | IC50 [1]: 14 nM | IC50 (human full length PDE3A): 120 nM

Cc1ccc(-c2ccc(C3=NNC(=O)CC3)cc2F)cc1N [Example 48, 6-(3′-amino-2-fluoro-4′-methyl[1,1′-biphenyl]-4-yl)-4,5-dihydropyridazin-3(2H)-one]
IC50 (SK-MEL-3 (melanoma)): 20.9 nM | IC50 (human full length PDE3B): 260 nM | IC50 [1]: 13.1 nM | IC50 (human full length PDE3A): 230 nM

O=C1CCC(c2ccc(-c3cc(F)cc(F)c3)c(F)c2)=NN1 [Example 54, 6-(2,3′,5′-trifluoro[1,1′-biphenyl]-4-yl)-4,5-dihydropyridazin-3(2H)-one]
IC50 (SK-MEL-3 (melanoma)): 37.8 nM | IC50 (human full length PDE3B): 380 nM | IC50 [1]: 18.5 nM | IC50 (human full length PDE3A): 190 nM

Nc1ccc(-c2ccc(C3=NNC(=O)CC3)cc2F)cc1 [Example 76, 6-(4′-amino-2-fluoro[1,1′-biphenyl]-4-yl)-4,5-dihydropyridazin-3(2H)-one]
IC50 (SK-MEL-3 (melanoma)): 8.73 nM | IC50 (human full length PDE3B): 89 nM | IC50 [1]: 5.52 nM | IC50 (human full length PDE3A): 90 nM

O=C1CCC(c2ccc(-c3ccc4cc[nH]c4c3)c(F)c2)=NN1 [Example 74, 6-[3-fluoro-4-(1H-indol-6-yl)phenyl]-4,5-dihydropyridazin-3(2H)-one]
IC50 (SK-MEL-3 (melanoma)): 21 nM | IC50 (human full length PDE3B): 180 nM | IC50 [1]: 13.3 nM | IC50 (human full length PDE3A): 110 nM

Cc1cc(C2=NNC(=O)CC2)ccc1-c1cn[nH]c1 [Example 6, 6-[3-Methyl-4-(1H-pyrazol-4-yl)phenyl]-4,5-dihydropyridazin-3(2H)-one]
IC50 (SK-MEL-3 (melanoma)): 89.3 nM | IC50 (human full length PDE3B): 87 nM | IC50 [1]: 53.3 nM | IC50 (human full length PDE3A): 72 nM

COc1ccc(OC)c(-c2ccc(C3=NNC(=O)CC3)cc2F)c1 [Example 41, 6-(2-fluoro-2′,5′-dimethoxy[1,1′-biphenyl]-4-yl)-4,5-dihydropyridazin-3(2H)-one]
IC50 (SK-MEL-3 (melanoma)): 68.8 nM | IC50 (human full length PDE3B): 100 nM | IC50 [1]: 51.6 nM | IC50 (human full length PDE3A): 150 nM

O=C1CCC(c2ccc(-c3cccc(O)c3)c(F)c2)=NN1 [Example 49, 6-(2-fluoro-3′-hydroxy[1,1′-biphenyl]-4-yl)-4,5-dihydropyridazin-3(2H)-one]
IC50 (SK-MEL-3 (melanoma)): 8.88 nM | IC50 (human full length PDE3B): 41 nM | IC50 [1]: 40.6 nM | IC50 (human full length PDE3A): 63 nM
